Assay: Dynamic vapor sorption (DVS)
Assay type: physicochemical
Settings: for hygroscopicity: DVS at RT; for water uptake from 60% RH to 80% RH / water uptake up to 60% RH: DVS; for water uptake from 60% RH to 80% RH / water uptake up to 60% RH / form change before and after DVS test: RT; for water uptake up to 60% RH: up to 60% RH (ambient condition); for form change before and after DVS test: determined by XRPD
Method: Dynamic Vapor Sorption (DVS) was measured with a Surface Measurement System (SMS) DVS Intrinsic.

## O=C([C@H](CO)c1ccccc1)N1CC2=C(C1)CN(S(=O)(=O)c1cnc3c(c1)OCCO3)C2 [Type B, (S)-1-(5-[2H,3H-[1,4]dioxino[2,3-b]pyridine-7-sulfonyl]-1H,2H,3H,4H,5H,6H-pyrrolo[3,4-c]pyrrol-2-yl)-3-hydroxy-2-phenylpropan-1-one]
  hygroscopicity: hygroscopic
  water uptake from 60% RH to 80% RH: 0.4%
  water uptake up to 60% RH: 2.9%
  form change before and after DVS test: No form change

## O=C([C@H](CO)c1ccccc1)N1CC2=C(C1)CN(S(=O)(=O)c1cnc3c(c1)OCCO3)C2 [Type C, (S)-1-(5-[2H,3H-[1,4]dioxino[2,3-b]pyridine-7-sulfonyl]-1H,2H,3H,4H,5H,6H-pyrrolo[3,4-c]pyrrol-2-yl)-3-hydroxy-2-phenylpropan-1-one]
  hygroscopicity: hygroscopic
  water uptake from 60% RH to 80% RH: 0.5%
  water uptake up to 60% RH: 1.8%
  form change before and after DVS test: No form change

Reference: US12161634B2, “Pyruvate kinase R (PKR) activating compositions” (Novo Nordisk Health Care AG, priority 2020, dated 2024)
